How the values were obtained:
[1] = molecular target: cytochrome oxidase (Complex IV) (Homo sapiens, UniProt P00395); settings: Brown G C, Mol. Cell. Biochem. 174:189-192, 1997; cited from earlier work
3NP treated mice [2] = experiment: 3NP model with TAU, creatine or coenzyme Q10: locomotor activity; format: in vivo, CD-1 mice
Procedure: (§1) Retired male CD-1 mice, 7-9 months of age, (Strain: Cr:NIH (S); Source: NCI) weighing 30-40 g were housed singly throughout the study. The animals were kept on a 12-hour light/dark cycle, with food and water continuously available. The animals were acclimated to our facility for seven days before experimentation. The mice were randomly assigned treatment groups.
(§2) The mice were given 3NP at a dose of 40, 40, 50, 50, 60 and 60 mg/kg i.p. on days 1-6 and 50 mg/kg i.p. on days […] was made up at 4, 5 or 6.0 mg/ml in sterile water (pH to 7.4 with 1.0 NaOH) and 0.1 ml/10 g BW was given (i.p) to each mouse at 3-4 PM.
(§3) The dosing of TAU (Nagase & Co., Ltd., Chemicals Second Division, 5-1, Nihonbashi-Kobunacho, Chuo-Ku, Tokyo 103, Japan; Lot 103 H 0060) was mixed into the rodent chow at 6% weight/weight. Creatine (Sigma) was mixed into the chow at 2% (weight/weight) that is previously reported to be the optimal dose (Matthews, Yang et al. 1998). […]
The Photobeam Activity System (San Diego Instruments, San Diego, Calif.) was used to measure spontaneous activity. […] Spontaneous activity was quantified by placing mice in the Photobeam Activity System for a period of 30 min. […]
(§4) Data were analyzed by one- or two-way ANOVA followed by comparison of treatments by the Tukey test. […]

3NP treated mice [3] = experiment: 3NP model with TAU, creatine or coenzyme Q10: rotarod; format: in vivo, CD-1 mice
Procedure: as §1, §2
as §3, with “1998). Coenzyme Q10 (Sigma) was also provided in the chow at a dose 200 mg/kg chow) previously shown to be effective (Matthews, Yang et al. 1998).” for “1998).”
The Rotarod apparatus (San Diego Instruments, San Diego, Calif.) was used to measure fore- and hindlimb motor coordination and balance. […] The latency to fall off the rotarod within this time period was recorded. […]
as §4

3NP treated mice [4] = experiment: 3NP model with TAU, creatine or coenzyme Q10: mortality and body weight; format: in vivo, CD-1 mice; settings: for mortality due to 3NP treatment: experiments 1 and 2 (FIGS. 1 and 2), 6% TAU, 2% creatine, coenzyme Q10 200 mg/kg chow
Procedure: as §1
The mice were given 3NP at a dose of 40, 40, 50, 50, 60 and 60 mg/kg i.p. on days 1-6 and 50 mg/kg i.p. on days 5-12.
as §2
The dosing of TAU (Nagase & Co., Ltd., Chemicals Second Division, 5-1, Nihonbashi-Kobunacho, Chuo-Ku, Tokyo 103, Japan; Lot 103 H 0060) was mixed into the rodent chow at 6% weight/weight. Creatine (Sigma) was mixed into the chow at 2% (weight/weight) that is previously reported to be the optimal dose (Matthews, Yang et al. 1998). Coenzyme Q10 (Sigma) was also provided in the chow at a dose 200 mg/kg chow) previously shown to be effective (Matthews, Yang et al. 1998).
• n=9-12/group • Vehicle+Vehicle • Vehicle+3NP • TAU+3NP • Creatine+3NP • TAU and Creatine+Vehicle
• (n=8-10/group) • Vehicle+Vehicle • Vehicle+3NP • TAU+3NP • Coenzyme Q10+3NP • TAU and Coenzyme Q10+Vehicle
• (n=8-10/group) • Vehicle+Vehicle • Vehicle+3NP • 8% TAU+Vehicle • 2% TAU+3NP • 4% TAU+3NP • 8% TAU+3NP
Data were analyzed by one- or two-way ANOVA followed by comparison of treatments by the Tukey test. Data are represented as mean±SEM.

3NP treated mice [5] = experiment: 3-nitropropionic acid (3NP) model of Huntington's disease; format: in vivo, Swiss mice
Procedure: Male 6-8 month old Swiss mice (National Cancer Institute; NCI, Frederick, Md.) were treated with 3NP (65 mg/kg i.p.) daily for 4 days to induce mortality, neuronal cell loss and behavioral impairment with n=8/group. […] On day 9, the mice were perfuse fixed with 10% buffered formalin and processed for silver staining to detect neuronal damage. […] There was no mortality in the 3NP+TAU group, but 3 of 8 mice died in the vehicle+3NP group.
Behavioral scoring of the 3NP treated mice was to determine whether there was any motor impairment at anytime during the study. There were 88% of the control+3NP treated mice with behavioral impairment indicated by gross observation. A decreased incidence of impairment of only 50% was found in the TAU+3NP treated mice.
The silver staining was analyzed by a pathologist blinded to the identity of tissue samples. […] However, in the control+3NP treated mice, silver staining of synaptic terminals in the striatal area (caudate/putamen area) and substantia nigra was pronounced. Silver impregnation of axons and/or synaptic terminals in the thalamus, deep mesencephalon and/or reticular formation (medulla) was also found in […] of the control+3NP treated mice. The substantia nigra projects to the striatum and these areas are especially vulnerable to damage by 3NP. The damage to the substantia nigra and striatum was prevented by TAU.

3NP treated mice [6] = experiment: 3-nitropropionic acid (3NP) model of epilepsy; format: in vivo, CD-1 mice
From the text: 3-nitropropionic acid (3NP) is a mitochondrial toxin that acts by inhibiting Complex II of the respiratory chain; it is used to induce brain lesions similar to those characteristic of Huntington's disease. Seizures can also be induced by the use of 3NP as a model of epilepsy and mitochondrial dysfunction. Urbanska et al., Eur J Pharmacol, 359: 55-8 (1998). Male CD-1 mice (National Cancer Institute, NCI, Frederick. Md.) weighing between […] were used throughout. Mice were divided into groups of 5 and animals for each group were randomly chosen from different cages to avoid possible influence of age. The mice were maintained on a 12 hr light dark cycle with free access to water and food. All experiments were performed during the light period between 9:00 and 16:00 hr. Mice (n=17-20) were given 160 mg/kg 3NP and followed for seizures. 3NP was made up at 16 mg or 18 mg/ml in sterile water (pH: 7.4). 3NP was administered i.p. in a volume of 0.1 m/10 g body weight. […] Seizures were assessed similar to the methods previously described (Roberts & Keith, J Pharmacol Exp Ther, 270:505-11, 1994; Urbanska et al., Eur J Pharmacol, 359:55-8, 1998).
Behavioral observations were performed within 120 min following application of 3-NP. Three major categories of convulsive seizure response were been considered and recorded: • 1. Clonic movements: the movements of the forelimbs accompanied by facial twitching; • 2. Explosive clonic movements: the movement of all four limbs involving running, jumping and bouncing; • 3. Tonic response: including tonic flexion and tonic extension of the all four limbs.
Mortality rate was evaluated at 120 min after 3NP injection.

[7] = test system: mice given intrastriatal QA; experiment: Quinolinic acid (QA) model of excitotoxicity; format: in vivo, Swiss mice; settings: TAU 4 g/kg bw p.o. b.i.d.
MPTP treated mice [8] = experiment: MPTP model of Parkinson's disease, first study
MPTP treated mice [9] = experiment: MPTP model of Parkinson's disease, second study; format: in vivo, C57/BL6 mice; settings: MPTP b.i.d. for 2 days, sacrificed on day 9, mean ± SEM
Procedure: A second study using MPTP (25 mg/kg i.p. b.i.d. for 2 days) was performed. […] TAU or vehicle was given orally (dose of TAU=4 g/kg bw b.i.d.) starting the day before MPTP administration and ending on day 8. Mice were sacrificed on day 9.

taxol-treated mice = experiment: Taxol-induced neuropathy, tail-flick latency; format: in vivo; settings: nine days after initiation of taxol 21.6 mg/kg/day i.p. for 6 days; oral triacetyluridine 4000 mg/kg b.i.d.
Procedure: Two groups of 10 mice each were treated with taxol, 21.6 mg/kg/day for 6 consecutive days by intraperitoneal injection. An additional group of 10 mice received injections of vehicle alone. One of the groups of taxol-treated mice received oral triacetyluridine, 4000 mg/kg b.i.d. Nine days after the initiation of taxol treatments, nociceptive sensory deficits were tested by determining tail-flick latency after exposure of the tip of the tail to focused thermal radiation with an infrared heat lamp. In this system, delays in the tail-flick response to radiant heat correlate with sensory nerve deficits.

[10] = test system: Normal human neural progenitor (NHNP) cells; experiment: Survival of differentiated NHNP cells without glucose and with azide (LDH/MTT); format: cell-based; settings: no glucose, sodium azide 0, 2, 4 and 8 mM, 20 hours (FIG. 16)
Procedure: NHNP cells derived from fetal brain were obtained from Clonetics (Walkersville, Md.; cat# CC-2598). The NHNP cells can be differentiated into neurons, glial cells, endothelial cells or microglial cells. […] Rockville, Md.) and hLIF (R&D System, Cat. 250-L-050. […] NHNP cells, passage 3-14 were plate in 96 well plates at 10 k cells/well and differentiated for 10 days. On the day of the experiment, cells were washed with DMEM without glucose, then incubated 20 hours in 100 μl of DMEM, no glucose and dialyzed 1% FBS (Life Technology Cat. 26300-061). […] Cell survival was assessed by the ratio of extracellular lactate dehydrogenase (LDH)/intracellular total dehydrogenase activity (MTT assay). Each condition was assayed in triplicate or quadruplicate. […] Extracellular LDH was assayed with 50 μl of supernatant using the Cytotoxicity Assay Kit (CytoTox 96 Non-Radioactive Cytotoxicity Assay; Promega, Cat. G1780. Madison, Wis.) according to kit instructions and read OD at 490 nm. After removing medium from the NHNP cells, 100 μl of assay medium (DMEM, no glucose and dialyzed 1% FBS) was added back to the cells. MTT was assayed in cells according to the kit instructions using Cell Proliferation Assay Kit (Promega, Cat. G4100. Madison, Wis.). Dye solution (15 μl) was added to each well and incubated 4 hours at 37° C. […] OD was read at 570 nm.

[11] = 160 mg/kg 3NP i.p., TAU 4 g/kg p.o. 2 hours prior, within 120 min

In the case of `[N]=O` [Nitric oxide], the “concentration that inhibits cytochrome oxidase / mitochondrial respiration” value [1] is given as roughly 1 µM.
With `COC1=C(OC)C(=O)C(C/C=C(\C)CC/C=C(\C)CC/C=C(\C)CC/C=C(\C)CC/C=C(\C)CC/C=C(\C)CC/C=C(\C)CC/C=C(\C)CC/C=C(\C)CCC=C(C)C)=C(C)C1=O` [coenzyme Q10] the “decrease in activity due 3NP treatment” value (3NP treated mice [2]; experiment 2 (FIG. 8)) was “attenuated”, the “impairment in rotarod performance at 10 RPM due 3NP treatment” value (3NP treated mice [3]; experiment 2 (FIG. 11)) was “attenuated” and the “loss in body weight due to 3NP” value (3NP treated mice [4]; experiment 2 (FIG. 5)) was “attenuated”. For the same molecule, the “mortality due to 3NP treatment” value (3NP treated mice [4]) was “decreased mortality”.
With `O=C(O)CC[N+](=O)[O-]` [3NP, 3-nitropropionic acid] the “mortality due to 3NP” value (3NP treated mice [5]; 3NP 65 mg/kg i.p. daily for 4 days, TAU 4 g/kg bw p.o. b.i.d., n=8/group) was 3 of 8, the “mice with behavioral (motor) impairment by gross observation” value (3NP treated mice [5]; at anytime during the study) was 88% and the “mice with silver impregnation of axons and/or synaptic terminals in thalamus, deep mesencephalon and/or reticular formation” value (3NP treated mice [5]; day 9) was 80%. The “neuronal damage by silver staining (striatal area, substantia nigra)” value (3NP treated mice [5]; day 9, blinded pathologist) was “pronounced”, the “Latency to clonic seizure” value (3NP treated mice [6]; 160 mg/kg 3NP i.p., TAU 4 g/kg p.o. 2 hours prior, mean ± SEM) was 23.8 ± 0.7 min and the “% Clonic seizures” value (3NP treated mice [6]; [11]) was 90.0%. The “% Running seizures” value (3NP treated mice [6]; [11]) was 42.9% and the “% Mortality” value (3NP treated mice [6]; at 120 min after 3NP injection) was 35%.
With `O=C(O)c1cccnc1C(=O)O` [QA, Quinolinic acid] the “percent of mice surviving the 7 days” value ([7]; 50 nmoles QA bilaterally in striatum) was 64% and the “percent of mice surviving the 7 days” value ([7]; 100 nmoles QA bilaterally in striatum) was 4%.
In the case of `CN1CC=C(c2ccccc2)CC1` [MPTP, 1-methyl-4-phenyl-1,2,3,6-tetrahydropyridine], the mortality (MPTP treated mice [8]; MPTP 30 mg/kg i.p. b.i.d. for 1.5 days, TAU 4 g/kg p.o. b.i.d.) is reported as 71.4%, the “Striatal DA, MPTP-treated mice” value (MPTP treated mice [8]; first study, eight days after stopping MPTP, mean ± SEM) is reported as 9.2 ± 2.2 ng DA/mg protein and the “Striatal DA, MPTP-treated mice” value (MPTP treated mice [9]) is reported as 15.9 ± 2.2 ng DA/mg protein.
For `CC(=O)O[C@H]1C(=O)[C@@]2(C)[C@H]([C@H](OC(=O)c3ccccc3)[C@]3(O)C[C@H](OC(=O)[C@H](O)[C@@H](NC(=O)c4ccccc4)c4ccccc4)C(C)=C1C3(C)C)[C@]1(OC(C)=O)CO[C@@H]1C[C@@H]2O` [Taxol, taxol], the Tail flick latency (taxol-treated mice) was 16.0 ± 3.1 s.
For `CN(CC(=O)O)C(=N)N` [creatine], the “decrease in activity due 3NP treatment” value (3NP treated mice [2]; experiment 1 (FIG. 7)) was “not attenuated”, the “impairment of rotarod performance at 5 RPM due to 3NP” value (3NP treated mice [3]; experiment 1 (FIG. 10)) was “significantly (p<0.01)” and the “mortality due to 3NP treatment” value (3NP treated mice [4]) was “not”.
For `O=c1ccn([C@@H]2O[C@H](CO)[C@@H](O)[C@H]2O)c(=O)[nH]1` [Uridine, uridine], the “uridine concentration required for robust protection of cells” value [10] was no less than 50 µM.
